Consider 14 compounds from patent publication US20190225650A1, “PEPTIDOMIMETIC MACROCYCLES AND USE THEREOF IN REGULATING HIF1ALPHA” (AILERON THERAPEUTICS, INC., priority 2013, published 2019).

Bridge positions count the residues as written; N and C are the ends. Square brackets hold non-standard residues; d marks the D form. Peptide text beside a SMILES is read from it. R8 = C=CCCCCCC[C@@](C)(N)C(=O)O; S5 = C=CCCC[C@](C)(N)C(=O)O; Nle = CCCC[C@H](N)C(=O)O

The assay has as its target T1, flag-tagged HIF1α (AA 786-826) / His6-tagged p300 (AA 323-423) complex (Homo sapiens, UniProt Q09472).
T1 construct: His6-tagged p300 (AA 323-423); made in house; host or cells: E. coli (pETDuet vector)
Put plainly: HIF1α p300 displacement assay (TR FRET, +CHAPS). The class given is binding. Conditions: read-out: IC50 (nM) (HIF1α_p300 Displacement + CHAPS). As to the method:
The ability of peptides to displace HIF1α c-terminal trans-activation domain from p300-CH was measured by a TR FRET assay. A complex of flag-tagged HIF1α (AA 786-826) and His6-tagged p300 (AA 323-423) was co-expressed using pETDuet vector (EMDMillipore, Bellrica Mass.) and purified from E. coli in the presence of 0.1 mM ZnSO4. The complex was diluted to 300 nM final in complete assay media and competitor peptides were added. The complete assay media contained 150 mM NaCl (Sigma +S5150 or equivalent), 20 mM HEPES pH 7.4 (Boston Bioproducts, Ashland, Mass.; #BB-2076), 7.5 mM CHAPS (Thermo #28300 or equivalent), and 1 mM DTT. Protein and peptide were incubated at room temperature for 1 hour before the addition of anti-Flag-K and anti-6×HIS-D2 (CisBio, Bedford Mass.) HTRF reconstitution buffer (50 mM Phosphate pH 7, 0.8 Potassium Flouride, BSA 0.2%)^1 to a final concentration of 0.5 μM and 4 nM respectively. The reaction continued for an additional two hours at room temperature. The reaction was read on a TECAN F500 plate reader with settings recommended by CisBio. The ratio of donor to acceptor fluorescence was calculated. The resulting data was analyzed with Graphpad Prism 5.0. IC50 values were calculated for both proteins using the One Site Fit-LogIC50 equation and presented in the column “IC50 (nM) (HIF1α_p300 Displacement+CHAPS)” of Table 6. ^1 Cisbio USA, Bedford, Mass.; 61HISDLB (lot 007A), 61FG2KLB (024A), HTRF Buffer (62RB3RDF)
In the case of `CC[C@H](C)[C@H](NC(=O)[C@H](Cc1ccccc1)NC(C)=O)C(=O)N[C@@H](CC(=O)O)C(=O)N[C@@H](CCC(=O)O)C(=O)N[C@@]1(C)CCCC=CCCC[C@@](C)(C(=O)N[C@@H](CC(C)C)C(=O)N[C@H](C(=O)N[C@H](C(=O)N[C@@H](CCC(=O)O)C(=O)N[C@@H](CCSC)C(=O)N[C@@H](C)C(N)=O)[C@@H](C)CC)C(C)C)NC(=O)[C@H](CCSC)NC(=O)[C@H](CC(C)C)NC(=O)[C@H](C(C)C)NC1=O` [SP-115] (Ac-FIDE[S5]VLM[S5]LVIEMA-NH2; staple 5-9), the IC50 is above 700 nM.
On to `CCCC[C@H](NC(=O)[C@H](CCC(=O)O)NC(=O)[C@@H](NC(=O)[C@@H](NC(=O)[C@H](CC(C)C)NC(=O)[C@]1(C)CCCC=CCCC[C@](C)(NC(=O)[C@H](CCC(=O)O)NC(=O)[C@H](CC(=O)O)NC(=O)[C@@H](NC(=O)[C@H](Cc2ccccc2)NC(C)=O)[C@@H](C)CC)C(=O)N[C@@H](C(C)C)C(=O)N[C@@H](CC(C)C)C(=O)N[C@@H](CCCC)C(=O)N1)C(C)C)[C@@H](C)CC)C(=O)N[C@@H](C)C(=O)N[C@@H](CC(C)C)C(=O)N[C@@H](CCCCN)C(N)=O` [SP-132] (Ac-FIDE[S5]VL[Nle][S5]LVIE[Nle]ALK-NH2; staple 5-9), for which the IC50 was above 700 nM.
In the case of `CCCC[C@H](NC(=O)[C@H](CCC(=O)O)NC(=O)[C@@H](NC(=O)[C@@H](NC(=O)[C@H](CC(C)C)NC(=O)[C@]1(C)CCCC=CCCC[C@](C)(NC(=O)[C@H](CCC(=O)O)NC(=O)[C@H](CC(=O)O)NC(=O)[C@@H](NC(=O)[C@H](Cc2ccccc2)NC(C)=O)[C@@H](C)CC)C(=O)N[C@@H](C(C)C)C(=O)N[C@@H](CC(C)C)C(=O)N[C@@H](CCCC)C(=O)N1)C(C)C)[C@@H](C)CC)C(=O)N[C@@H](C)C(=O)N[C@@H](CC(C)C)C(=O)N[C@@H](CCCCN)C(=O)N[C@@H](CCCCN)C(N)=O` [SP-133] (Ac-FIDE[S5]VL[Nle][S5]LVIE[Nle]ALKK-NH2; staple 5-9), the IC50 was above 700 nM.
`CCCC[C@H](NC(=O)[C@H](CCC(=O)O)NC(=O)[C@@H](NC(=O)[C@@H](NC(=O)[C@H](CC(C)C)NC(=O)[C@]1(C)CCCC=CCCC[C@](C)(NC(=O)[C@H](CCC(=O)O)NC(=O)[C@H](CC(=O)O)NC(=O)[C@@H](NC(=O)[C@H](Cc2ccccc2)NC(=O)[C@H](CCCCN)NC(=O)[C@H](CCCCN)NC(C)=O)[C@@H](C)CC)C(=O)N[C@@H](C(C)C)C(=O)N[C@@H](CC(C)C)C(=O)N[C@@H](CCCC)C(=O)N1)C(C)C)[C@@H](C)CC)C(=O)N[C@@H](C)C(=O)N[C@@H](CC(C)C)C(N)=O` [SP-135] (Ac-KKFIDE[S5]VL[Nle][S5]LVIE[Nle]AL-NH2; staple 7-11): the IC50 is above 700 nM.
For the compound `CCCC[C@H](NC(=O)[C@H](CCC(=O)O)NC(=O)[C@@H](NC(=O)[C@@H](NC(=O)[C@H](CC(C)C)NC(=O)[C@]1(C)CCCC=CCCC[C@](C)(NC(=O)[C@H](CCC(=O)O)NC(=O)[C@H](CC(=O)O)NC(=O)[C@@H](NC(=O)[C@H](Cc2ccccc2)NC(=O)[C@H](CCCCN)NC(C)=O)[C@@H](C)CC)C(=O)N[C@@H](C(C)C)C(=O)N[C@@H](CC(C)C)C(=O)N[C@@H](CCCC)C(=O)N1)C(C)C)[C@@H](C)CC)C(=O)N[C@@H](C)C(=O)N[C@@H](CC(C)C)C(=O)N[C@@H](CCCCN)C(N)=O` [SP-136] (Ac-KFIDE[S5]VL[Nle][S5]LVIE[Nle]ALK-NH2; staple 6-10), the IC50 was above 700 nM.
With `CCCC[C@H](NC(=O)[C@H](CCC(=O)O)NC(=O)[C@@H](NC(=O)[C@@H](NC(=O)[C@H](CC(C)C)NC(=O)[C@]1(C)CCCC=CCCC[C@](C)(NC(=O)[C@H](CCC(=O)O)NC(=O)[C@H](CC(=O)O)NC(=O)[C@@H](NC(=O)[C@H](Cc2ccccc2)NC(=O)[C@H](CCCCN)NC(=O)[C@H](CCCCN)NC(C)=O)[C@@H](C)CC)C(=O)N[C@@H](C(C)C)C(=O)N[C@@H](CC(C)C)C(=O)N[C@@H](CCCC)C(=O)N1)C(C)C)[C@@H](C)CC)C(=O)N[C@@H](C)C(=O)N[C@@H](CC(C)C)C(=O)N[C@@H](CCCCN)C(=O)N[C@@H](CCCCN)C(N)=O` [SP-137] (Ac-KKFIDE[S5]VL[Nle][S5]LVIE[Nle]ALKK-NH2; staple 7-11), the IC50 is above 700 nM.
In the case of `CCCC[C@H](NC(=O)[C@H](CCC(=O)O)NC(=O)[C@@H](NC(=O)[C@@H](NC(=O)[C@H](CC(N)=O)NC(=O)[C@]1(C)CCCC=CCCC[C@](C)(NC(=O)[C@H](C)NC(=O)[C@H](CC(=O)O)NC(=O)[C@@H](NC(=O)[C@H](Cc2ccccc2)NC(C)=O)[C@@H](C)CC)C(=O)N[C@@H](C(C)C)C(=O)N[C@@H](CC(C)C)C(=O)N[C@@H](CCCC)C(=O)N1)C(C)C)[C@@H](C)CC)C(=O)N[C@@H](C)C(=O)N[C@@H](CC(C)C)C(N)=O` [SP-150] (Ac-FIDA[S5]VL[Nle][S5]NVIE[Nle]AL-NH2; staple 5-9), the IC50 was 200 to 400 nM.
Take `CC[C@H](C)[C@H](NC(=O)[C@H](Cc1ccccc1)NC(C)=O)C(=O)N[C@@H](CC(=O)O)C(=O)N[C@@H](CCC(=O)O)C(=O)N[C@]1(C)CCCCCCC=CCCC[C@@](C)(C(=O)N[C@@H](CCC(=O)O)C(=O)N[C@@H](CCSC)C(=O)N[C@@H](C)C(=O)N[C@@H](C)C(N)=O)NC(=O)[C@H](C(C)C)NC(=O)[C@H](CC(C)C)NC(=O)[C@H](CO)NC(=O)[C@H](CCSC)NC(=O)[C@H](CC(C)C)NC(=O)[C@H](C(C)C)NC1=O` [SP-178] (Ac-FIDE[R8]VLMSLV[S5]EMAA-NH2; staple 5-12): the IC50 is above 700 nM.
As to `CC[C@H](C)[C@H](NC(=O)[C@H](Cc1ccccc1)NC(C)=O)C(=O)N[C@@H](CC(=O)O)C(=O)N[C@@H](CCC(=O)O)C(=O)N[C@]1(C)CCCCCCC=CCCC[C@@](C)(C(=O)N[C@@H](CCC(=O)O)C(=O)N[C@@H](CCSC)C(=O)N[C@@H](C)C(=O)N[C@@H](C)C(=O)N[C@@H](C)C(N)=O)NC(=O)[C@H](C(C)C)NC(=O)[C@H](CC(C)C)NC(=O)[C@H](CO)NC(=O)[C@H](CCSC)NC(=O)[C@H](CC(C)C)NC(=O)[C@H](C(C)C)NC1=O` [SP-179] (Ac-FIDE[R8]VLMSLV[S5]EMAAA-NH2; staple 5-12), the IC50 was above 700 nM.
As for `CSCC[C@H](NC(=O)[C@H](CO)NC(=O)[C@]1(C)CCCC=CCCCCCC[C@@](C)(NC(=O)[C@H](CCC(=O)O)NC(=O)[C@@H](NC(=O)[C@H](CC(C)C)NC(C)=O)[C@@H](C)O)C(=O)N[C@@H](C(C)C)C(=O)N[C@@H](CC(C)C)C(=O)N[C@@H](CCSC)C(=O)N[C@@H](CO)C(=O)N[C@@H](CC(C)C)C(=O)N[C@@H](C(C)C)C(=O)N1)C(=O)N[C@@H](C)C(N)=O` [SP-180] (Ac-LTE[R8]VLMSLV[S5]SMA-NH2; staple 4-11), the half-maximal inhibitory concentration (IC50) was above 700 nM.
On to `CSCC[C@@H]1NC(=O)[C@H](CC(C)C)NC(=O)[C@H](C(C)C)NC(=O)[C@](C)(NC(=O)[C@H](CCC(=O)O)NC(=O)[C@@H](NC(=O)[C@H](CC(C)C)NC(C)=O)[C@@H](C)O)CCCCCCC=CCCC[C@@](C)(C(=O)N[C@@H](CO)C(=O)N[C@@H](C)C(=O)N[C@@H](C)C(N)=O)NC(=O)[C@H](C(C)C)NC(=O)[C@H](CC(C)C)NC(=O)[C@H](CO)NC1=O` [SP-181] (Ac-LTE[R8]VLMSLV[S5]SAA-NH2; staple 4-11), for which the IC50 was above 700 nM.
With `CC[C@H](C)[C@H](NC(=O)[C@H](Cc1ccccc1)NC(C)=O)C(=O)N[C@@H](CC(=O)O)C(=O)N[C@@H](CCC(=O)O)C(=O)N[C@]1(C)CCCCCCC=CCCC[C@@](C)(C(=O)N[C@@H](CCC(=O)O)C(=O)N[C@@H](CCSC)C(=O)NCC(N)=O)NC(=O)[C@H](C(C)C)NC(=O)[C@H](CC(C)C)NC(=O)[C@H](CO)NC(=O)[C@H](C)NC(=O)[C@H](CC(C)C)NC(=O)[C@H](C(C)C)NC1=O` [SP-184] (Ac-FIDE[R8]VLASLV[S5]EMG-NH2; staple 5-12), the IC50 was above 700 nM.
As for `CCCC[C@@H]1NC(=O)[C@H](CC(C)C)NC(=O)[C@H](C(C)C)NC(=O)[C@](C)(NC(=O)[C@H](CCC(=O)O)NC(=O)[C@H](CC(=O)O)NC(=O)[C@@H](NC(=O)[C@H](Cc2ccccc2)NC(C)=O)[C@@H](C)CC)CCCCCCC=CCCC[C@@](C)(C(=O)N[C@@H](CCC(=O)O)C(=O)N[C@@H](CCSC)C(=O)NCC(N)=O)NC(=O)[C@H](C(C)C)NC(=O)[C@H](CC(C)C)NC(=O)[C@H](CO)NC1=O` [SP-185] (Ac-FIDE[R8]VL[Nle]SLV[S5]EMG-NH2; staple 5-12), the figure is above 700 nM; as for `CCCC[C@H](NC(=O)[C@H](CCC(=O)O)NC(=O)[C@]1(C)CCCC=CCCCCCC[C@@](C)(NC(=O)[C@H](CCC(=O)O)NC(=O)[C@H](CC(=O)O)NC(=O)[C@@H](NC(=O)[C@H](Cc2ccccc2)NC(C)=O)[C@@H](C)CC)C(=O)N[C@@H](C(C)C)C(=O)N[C@@H](CC(C)C)C(=O)N[C@@H](CCSC)C(=O)N[C@@H](CO)C(=O)N[C@@H](CC(C)C)C(=O)N[C@@H](C(C)C)C(=O)N1)C(=O)NCC(N)=O` [SP-186] (Ac-FIDE[R8]VLMSLV[S5]E[Nle]G-NH2; staple 5-12), above 700 nM.
